Counter-ions that a name gives are not always drawn.
Columns and labels:
[1] = target: human dopamine D3 receptor (Homo sapiens, UniProt P35462); experiment: Displacement of [3H] 7 OH-DPAT binding to membranes of CHO cells expressing human dopamine D3 receptor; settings: [3H] 7 OH-DPAT 0.4 nM, CHO cell membranes, cloned human D3 receptor
Method: The inhibition constants (Ki) of test compounds were measured by displacement of [^3H] 7 OH-DPAT binding to membrane preparations from Chinese hamster ovary cells expressing human dopamine D3 receptor. Cells expressing the human D3 receptor were homogenized with Polytron and centrifuged for 10 min at 4° C. at 20,000 RPM in a Sorvall RCB5 centrifuge with a SS34 rotor. After repeating the washing once more, the pellet was resuspended in buffer consisting of 120 mM NaCl, 5 mM KCl, 5 mM MgCl2, 2 mM CaCl2 and 50 mM tris, pH 7.4 and the protein content determined using bovine serum albumin as a standard (Bradford, M. M. (1976) Anal. Biochem. 72, 248–254). Compounds at varying concentrations were incubated with the membrane preparations in the presence of 0.4 nM [^3H] 7 OH-DPAT. The assay was incubated for 15 min at 37° C. and the reaction was terminated by rapid filtration with 50 mM Tris pH 7.4, through GF/B filters previously soaked in 0.5% polyethyleneimine. Filters were dried overnight and counted in Betaplate Scintillation counter. Non-specific binding was defined as the radioligand binding remaining after incubation in the presence of 10 μM butacomol. For competition curves, seven concentrations (single log dilutions) of competing unlabeled, compounds were used. Competition curves were analysed simultaneously whenever possible using non-linear least-squares fitting procedures, capable of fitting one, two or three site models.

dopamine D2 receptor = dopamine D2 receptor (Homo sapiens, UniProt P14416); experiment: Dopamine D2 receptor binding (Binding data table)
Sequence of dopamine D2 receptor (P14416 whole entry, species assumed): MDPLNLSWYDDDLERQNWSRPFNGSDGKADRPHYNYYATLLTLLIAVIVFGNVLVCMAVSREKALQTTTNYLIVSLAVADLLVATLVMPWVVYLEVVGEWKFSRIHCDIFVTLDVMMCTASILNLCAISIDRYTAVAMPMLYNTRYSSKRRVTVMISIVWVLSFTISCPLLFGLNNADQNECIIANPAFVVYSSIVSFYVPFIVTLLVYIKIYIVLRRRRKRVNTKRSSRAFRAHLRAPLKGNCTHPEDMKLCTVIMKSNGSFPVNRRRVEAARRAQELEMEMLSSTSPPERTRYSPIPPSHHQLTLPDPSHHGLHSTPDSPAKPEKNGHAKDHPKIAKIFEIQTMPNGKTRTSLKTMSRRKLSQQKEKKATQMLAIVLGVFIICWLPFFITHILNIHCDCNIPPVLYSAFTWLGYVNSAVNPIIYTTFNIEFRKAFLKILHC

Sequence of human dopamine D3 receptor (P35462 whole entry): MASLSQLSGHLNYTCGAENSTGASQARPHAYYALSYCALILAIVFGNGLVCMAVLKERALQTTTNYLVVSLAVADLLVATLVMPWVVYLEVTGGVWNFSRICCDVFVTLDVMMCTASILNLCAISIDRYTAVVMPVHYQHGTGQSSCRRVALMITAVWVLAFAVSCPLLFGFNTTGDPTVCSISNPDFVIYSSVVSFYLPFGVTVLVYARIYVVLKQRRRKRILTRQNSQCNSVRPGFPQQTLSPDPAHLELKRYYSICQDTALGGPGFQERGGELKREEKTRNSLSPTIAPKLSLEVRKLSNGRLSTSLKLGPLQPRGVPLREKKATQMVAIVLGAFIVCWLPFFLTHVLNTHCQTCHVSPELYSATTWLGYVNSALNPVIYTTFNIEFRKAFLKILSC

| Ki [1] [nM] | Ki (dopamine D2 receptor) [nM] | Structure (SMILES) |
| --- | --- | --- |
| 16 | > 770 | Cc1cccc(C)c1C(=O)NCC1CC1CN1CCN(c2cc(C(F)(F)F)nc(C(C)(C)C)n2)CC1 (racemic) [N-{(Z)-2-[4-(2-tert-Butyl-6-trifluoromethyl-pyrimidin-4-yl)-piperazin-1-ylmethyl]-cyclopropylmethyl}-2,6-dimethyl-benzamide, dihydrochloride salt] |
| 31 | > 740 | CC(C)(C)c1nc(N2CCN(CC3CC3CNC(=O)c3ccc(Cl)cc3)CC2)cc(C(F)(F)F)n1 (racemic) [[Z](+/−)N-{2-[4-(2-tert-Butyl-6-trifluoromethyl-pyrimidin-4-yl)-piperazin-1-ylmethyl]-cyclopropylmethyl}-4-chloro-benzamide] |
| 2 | 76 | Cc1cccc(C)c1C(=O)NCC1CC1CN1CCN(c2cccc(C(F)(F)F)c2)CC1 (single isomer, unassigned) [2,6-Dimethyl-N-{(E)-2-[4-(3-trifluoromethyl-phenyl)-piperazin-1-ylmethyl]-cyclopropylmethyl}benzamide] |
| 5 | 460 | Cc1cccc(C)c1C(=O)NCC1CC1CN1CCN(c2cccc(C(F)(F)F)c2)CC1 (single isomer, unassigned) [2,6-Dimethyl-N-{(Z)-2-[4-(3-trifluoromethyl-phenyl)-piperazin-1-ylmethyl]-cyclopropylmethyl}benzamide] |

From US7056922B2, “Acylamino cyclopropane derivatives” (Pfizer Inc, priority 2000, dated 2006)
